According to patent publication US9296753B2, “Crystalline forms of a Bruton's tyrosine kinase inhibitor” (Pharmacyclics LLC, priority 2012, dated 2016):
In brackets after ≈: the same amount, converted by molar mass. Where two headings read alike, the source gives them in different places.

Legend:
[1] = Thermodynamic aqueous solubility; type: physicochemical; settings: water, 25 °C, thermodynamic from solid
Experimental: The suspension was equilibrated at 25° C. for 24 hours then the pH was measured. The suspension was then filtered through a glass fibre C filter. The filtrate was then diluted by an appropriate factor e.g. 101. Quantitation was by HPLC with reference to a standard solution of approximately 0.25 mg/ml in DMSO. Different volumes of the standard, diluted and undiluted sample solutions were injected. The solubility was calculated using the peak areas determined by integration of the peak found at the same retention time as the principal peak in the standard injection.
Analysis was performed on an Agilent HP1100 series system equipped with a diode array detector and using ChemStation software vB.02.01-SR1.

[2] = for mass change (GVS): between 0-90% RH
Experimental: Sorption isotherms were obtained using a SMS DVS Intrinsic moisture sorption analyser, controlled by DVS Intrinsic Control software v1.0.0.30. The sample temperature was maintained at 25° C. by the instrument controls. The humidity was controlled by mixing streams of dry and wet nitrogen, with a total flow rate of 200 ml/min. […] The weight change, (mass relaxation) of the sample as a function of % RH was constantly monitored by the microbalance (accuracy±0.005 mg). Typically 5-20 mg of sample was placed in a tared mesh stainless steel basket under ambient conditions. The sample was loaded and unloaded at 40% RH and 25° C. (typical room conditions). A moisture sorption isotherm was performed as outlined below (2 scans giving 1 complete cycle). The standard isotherm was performed at 25° C. at 10% RH intervals over a 0-90% RH range. Data analysis was undertaken in Microsoft Excel using DVS Analysis Suite v6.0.0.7. The sample was recovered after completion of the isotherm and re-analysed by XRPD.

SMILES | solubility at 24 h ([1]; pH 1.2, simulated gastric fluid, pH 1.2, 25° C., 24 hours, read-out: Conc. Found (solubility in aqueous solution)) | solubility at 24 h ([1]; pH 1.64, simulated gastric fluid, pH 1.64, 25° C., 24 hours, read-out: Conc. Found (solubility in aqueous solution)) | solubility at 24 h ([1]; pH 1.95, simulated gastric fluid, pH 1.95, 25° C., 24 hours, read-out: Conc. Found (solubility in aqueous solution)) | solubility at 24 h ([1]; pH 3, aqueous buffer, pH 3, 25° C., 24 hours, read-out: Conc. Found (solubility in aqueous solution)) | solubility at 24 h ([1]; pH 4, aqueous buffer, pH 4, 25° C., 24 hours, read-out: Conc. Found (solubility in aqueous solution)) | solubility at 24 h ([1]; pH 5, aqueous buffer, pH 5, 25° C., 24 hours, read-out: Conc. Found (solubility in aqueous solution)) | solubility at 24 h ([1]; pH 6, aqueous buffer, pH 6, 25° C., 24 hours, read-out: Conc. Found (solubility in aqueous solution)) | solubility at 24 h ([1]; pH 8, aqueous buffer, pH 8, 25° C., 24 hours, read-out: Conc. Found (solubility in aqueous solution)) | solubility at 24 h ([1]; pH 9, aqueous buffer, pH 9, 25° C., 24 hours, read-out: Conc. Found (solubility in aqueous solution)) | solubility at 24 h ([1]; pH 10, aqueous buffer, pH 10, 25° C., 24 hours, read-out: Conc. Found (solubility in aqueous solution)) | changes in the XRPD after GVS analysis [2] | mass change (GVS) ([2]; 25° C.) | solubility at 24 h ([1]; pH 7.42, water, pH of about 7.42, read-out: observed aqueous solubility) | solubility thermodynamic at 24 h ([1]; pH 7.42, water, pH of 7.42) | hysteresis (GVS) ([2]; 0-90% RH, 25° C.)
C=CC(=O)N1CCC[C@@H](n2nc(-c3ccc(Oc4ccccc4)cc3)c3c(N)ncnc32)C1 [Form A, 1-((R)-3-(4-amino-3-(4-phenoxyphenyl)-1H-pyrazolo[3,4-d]pyrimidin-1-yl)piperidin-1-yl)prop-2-en-1-one] | 1300 µg/mL (≈ 2950 µM) | 1070 µg/mL (≈ 2430 µM) | 820 µg/mL (≈ 1860 µM) | 100 µg/mL (≈ 227 µM) | 22 µg/mL (≈ 49.9 µM) | 17 µg/mL (≈ 38.6 µM) | 15 µg/mL (≈ 34.1 µM) | ~13 µg/mL (≈ 29.5 µM) | 20 µg/mL (≈ 45.4 µM) | 10 µg/mL (≈ 22.7 µM) | No significant changes | < 0.3 % w/w |  |  | 
C=CC(=O)N1CCC[C@@H](n2nc(-c3ccc(Oc4ccccc4)cc3)c3c(N)ncnc32)C1 [Form B, 1-((R)-3-(4-amino-3-(4-phenoxyphenyl)-1H-pyrazolo[3,4-d]pyrimidin-1-yl)piperidin-1-yl)prop-2-en-1-one] |  |  |  |  |  |  |  |  |  |  | No significant changes | 2.3 % w/w | ~9.6 µg/mL (≈ 21.8 µM) | 9.6 µg/mL (≈ 21.8 µM) | No hysteresis
